Tested on: Ai14 mice
Assay: Normalized delivery and fold enrichment from DNA barcode sequencing of tdTomato+ cells
Type: in vivo
Details: by LNP component; pool of 65 LNPs
Protocol: Following characterization of the pool of 65 Pi-LNPs, the LNPs were injected into Ai14 mice at a total nucleic dose of 1.5 mg/kg (averaging a 0.023 mg total nucleic acid/kg/particle, for all 65 Pi-LNPs) (FIG. 2A). The Ai14 mice have a Lox-Stop-Lox-tdTomato construct downstream of a CAG promoter. Thus, if Cre mRNA is delivered into a target cell and is subsequently functionally translated into Cre protein, the cells become tdTomato+ (FIG. 2A). By isolating tdTomato+ cells using fluorescence-activated cell sorting (FACS, FIG. 4, FIG. 5) and sequencing the cells using next-generation sequencing, it was possible to isolate the DNA barcodes, associated with specific LNPs, within cells that were functionally transfected with Cre mRNA 26, 36-38 Three days after injection, liver, spleen, lung, and kidney were isolated and quantified the percentage of tdTomato+ cells from 14 different cell populations (FIG. 2B). […] The percentage of tdTomato+ quantified in liver endothelial cells and dendritic cells was <5%, and no delivery in lung and kidney was observed. […] From the barcode raw counts obtained through sequencing, the normalized delivery of each individual barcode was calculated. Briefly, the normalized delivery of a given barcode was calculated as the number of counts for that barcode divided by the counts for all N barcodes (Tables 1-3, below). […]

## CC(C)CCC[C@@H](C)[C@H]1CC[C@H]2[C@@H]3CC=C4C[C@@H](O)CC[C@]4(C)[C@H]3CC[C@]12C [cholesterol]
  fold enrichment (odds of being in top or bottom 10% of LNPs): outperformed 20α-OH cholesterol

— patent US20250127727A1, “IONIZABLE LIPIDS WITH BIOACTIVE MOTIFS” (GEORGIA TECH RESEARCH CORPORATION, priority 2021, published 2025)
